Consider four compounds from patent US20020119993A1, “Potentiator for neurotrophin effect” (SANKO COMPANY, LIMITED, priority 1999, published 2002).

One assay deals with PC12 cells. Briefly: Induction of differentiation (neurite outgrowth) in PC12 cells with neurotrophin. It is filed as cell-based, rat. The note with it: for Ratio of PC12 cells having an outgrowth (%): 72 hours; for Differentiation-induction of PC12 cells by neurotrophin alone (in words): neurotrophin used alone. An excerpt: Induction of Differentiation in […] strain (PC12 cell) derived from Rat Adrenal Medulla
PC12 cells were suspended in a DEM medium containing 10% equine serum and 5% bovine serum and the resulting suspension was charged in a collagen-coated 24-well plate. Twenty-four hours later, the medium was exchanged. A neurotrophin [human recombinant NGF or NT-3 (Austral Biologicals)] and 1-amino-3,8-dichloro-6(5H)-phenanthridinone (Compound No. 166) synthesized in accordance with the process described in Journal of Heterocyclic Chemistry, Z, 597 (1970), were added and cultured for 72 hours. After the medium was discarded, the cells were fixed with 2% glutaraldehyde and were observed under a microscope. The ratio of the cells having a longer outgrowth than the cell body was determined.

For assay [1], the system named is sensory neurons in the dorsal root ganglion of the rat spinal cord. Briefly: Survival of sensory neurons of the dorsal root ganglion of the rat spinal cord. It counts as cell-based. The settings on record: for Effect on NGF or NT-3 prolonged survival of sensory neurons in the dorsal root ganglion (in words): with NGF or NT-3. Here is the method:
Effects on Survival of Ganglion Sensory Neurons in Dorsal Spinal Root Ganglion of the Rat Spinal Cord
The dorsal root ganglion of the spinal cord was isolated from fetuses of the SD rat (Nippon SLC) on 17 days definite pregnancy under a stereoscopic microscope. The ganglion was then treated with 1 mg/ml of collagenase, 2 mg/ml of trypsin and 2 mg/ml of DNase I, followed by dispersion in an MEM medium containing 10% bovine fetal serum. Immediately after the sensory neuron suspension was charged in a 12-well plate (Becton Dickinson Labware) which was coated in advance with laminin and poly-D-lysine, a neurotrophin (NGF or NT-3) and 1-amino-3,8-dichloro-6(5H)-phenanthridinone (Compound No. 166) or 6(5H)-phenanthridinone (Compound A) were added. When half of the medium was exchanged on the next day, cytosine arabinoside was added to the culture medium at a final concentration of 10 μM, in order to cause cell death other than to neurons. A neurotrophin and the test compound were added to the medium at their original concentrations. After culturing for a further two days, the neurons were photographed under a microscope and the number of viable neurons was counted.

Assay [2] concerns neurotrophin receptor Trk. Briefly: Neurotrophin receptor Trk activation (phosphotyrosine) in hippocampal and strial tissue slices of matured rat. It counts as cell-based. The settings on record: for Amount of neurotrophin receptor Trk activated in matured rat cerebral tissues: relative to the amount (100) activated by NGF in the strial tissue. As to the method:
Enhancing Action of Neurotrophin Response in Hippocampal and Strial Tissue Slices of Matured Rat
Male SD rats (Nippon SLC) were decapitated under anesthesia and the hippocampus and the corpus striatum were isolated. The tissue was cut into 0.2×0.2 mm slices with a “McIlwain Tissue Chopper” (Mickle Laboratory Engineering Company), and were suspended in a DMEM medium. A neurotrophin (NGF or NT-3) and 1-amino-3,8-dichloro-6(5H)-phenanthridinone were added to the suspension and the mixture was kept at 37° C. for 20 minutes. After washing the tissue with ice-cooled tris buffer physiological saline (TBS), the mixture was stirred vigorously and dissolved in TBS containing 1% Triton-X100, 10 μg/ml of leupeptin, 10 µg/ml of aprotinin, 1 mM of phenylmethylsulfonyl fluoride and 1 mM of sodium vanadate. After centrifugation at 14000 g for 15 minutes, the amount of protein in the supernatant was determined with Protein Assay Kit (Bio-Rad Laboratories, Ltd.). Anti-Trk antibody C-14 (Santa Cruz Biotechnology Inc) which specifically binds to Trk, a neurotrophin receptor, was added to the extract which was adjusted to contain an equal amount of protein and mixed at 4° C. for 16 hours. Thus the Trk receptor in the tissue extract formed an immunocomplex with the antibody. The immunocomplex was precipitated with protein A Sepharose beads (Amersham Pharmacia Biotech). The Trk protein collected was separated from other proteins by sodium dodecyl sulfate-polyacrylamide gel electrophoresis and then transferred to a nitrocellulose membrane by Western blot assay. The membrane was reacted with Antibody 4G10 (Upstate Biotechnology Inc) which recognizes phosphotyrosine and the amount of phosphotyrosine of the Trk protein fixed on the membrane was visualized on a film by an enhanced chemiluminescence kit (Amersham Pharmacia Biotech). The film was photographed by a digital camera and the density of the band was determined by digital image analyzing software (Eastman Kodak Company).

[3] abbreviates: Table 4, NT-3 100 ng/ml + compound 1 μM.
Setting [4] is: Table 4, neurotrophin-free, compound 1 μM.

For the compound “NT-3: neurotrophin-3, a neurotrophin (Austral Biologicals)”, in the assay on PC12 cells (neurotrophin alone 100 ng/ml, compound-free), the “Ratio of PC12 cells having an outgrowth (%)” value (“Ratio … (%)” below) is 2 ± 0.6%. Moreover, in the assay with PC12 cells, the “Differentiation-induction of PC12 cells by neurotrophin alone (in words)” value was “did not cause any sufficient differentiation-induction by itself”. The “Number of viable sensory neurons in the dorsal root ganglion of the rat spinal cord (per mm^2)” value (from here on “Number of viable sensory neurons … (per mm^2)”) was 19 ± 5.0 per mm^2 in assay [1] (Table 3, neurotrophin alone 100 ng/ml, compound-free) and 33 ± 4.9 per mm^2 in assay [1] (Table 4, neurotrophin alone 100 ng/ml, compound-free). For the same compound, the “Amount of neurotrophin receptor Trk activated in matured rat cerebral tissues” value was determined as 12 in assay [2] (Corpus striatum, NT-3 100 ng/ml alone) and 27 in assay [2] (Hippocampus, NT-3 100 ng/ml alone).

`Nc1cc(Cl)cc2[nH]c(=O)c3cc(Cl)ccc3c12` [Compound No. 166, 1-amino-3,8-dichloro-6(5H)-phenanthridinone]: the “Ratio … (%)” value in the assay with PC12 cells (NGF 5 ng/ml + compound 3 μM) came out at 12 ± 1.3%; with PC12 cells (NGF 5 ng/ml + compound 30 μM) it was 29 ± 2.6%; in the assay on PC12 cells (NGF 20 ng/ml + compound 3 μM), 51 ± 6.5%; in the assay with PC12 cells (NGF 20 ng/ml + compound 30 μM), 72 ± 2.0%; in the assay on PC12 cells (NGF 50 ng/ml + compound 3 μM) it was 79 ± 3.0%; with PC12 cells (NGF 50 ng/ml + compound 30 μM) it was 88 ± 0.7%. Further, the results for the “Ratio … (%)” value in the assay on PC12 cells (NT-3 100 ng/ml + compound 3 μM) and in the assay with PC12 cells (NT-3 100 ng/ml + compound 30 μM) were 62 ± 0.2% and 73 ± 3.6%, respectively. Moreover, the “Effect on NGF-induced differentiation and neurite outgrowth in PC12 cells (in words)” value with PC12 cells (applied with NGF) is “potentiated the NGF-induced differentiation and neurite outgrowth in PC12 cells”. For the same compound, in the assay with PC12 cells (combined application with NT-3), the “Effect on differentiation-induction of PC12 cells (in words)” value was “markedly potentiated the differentiation-induction of PC12 cells”. The “Number of viable sensory neurons … (per mm^2)” value in assay [1] (Table 3, NGF 1 ng/ml + compound 3 μM) turned out to be 71 ± 1.7 per mm^2; in assay [1] (Table 3, NT-3 100 ng/ml + compound 3 μM) it was 168 ± 21.1 per mm^2; in assay [1] (Table 3, neurotrophin-free, compound 3 μM), 24 ± 1.6 per mm^2; in assay [1] (setting [3]), 133 ± 13.1 per mm^2; in assay [1] (setting [4]), 11 ± 4.0 per mm^2. Besides, in assay [1], the “Effect on NGF or NT-3 prolonged survival of sensory neurons in the dorsal root ganglion (in words)” value was “markedly potentiated the effects of NGF or NT-3”. For the same compound, the “Amount of neurotrophin receptor Trk activated in matured rat cerebral tissues” value in assay [2] (Corpus striatum, NT-3 100 ng/ml + compound 30 μM) is on record as 68; in assay [2] (Hippocampus, NT-3 100 ng/ml + compound 30 μM), 58. The “Neurotrophin enhancing action in the adult central nervous system (in words)” value in assay [2] (matured rat cerebral tissue slices, Table 5) was “has a neurotrophin enhancing action in the adult central nervous system”.

Turning to “NGF: human recombinant NGF (nerve growth factor), a neurotrophin (Austral Biologicals)”, the “Ratio … (%)” value in the assay with PC12 cells (neurotrophin alone 5 ng/ml, compound-free) worked out at 8 ± 0.9%; with PC12 cells (neurotrophin alone 20 ng/ml, compound-free), 27 ± 2.8%; with PC12 cells (neurotrophin alone 50 ng/ml, compound-free), 57 ± 3.6%. In the assay with PC12 cells, the “Differentiation-induction of PC12 cells by neurotrophin alone (in words)” value is listed as “induced differentiation of PC12 cells”. In addition, the “Number of viable sensory neurons … (per mm^2)” value in assay [1] (Table 3, neurotrophin alone 1 ng/ml, compound-free) is 44 ± 5.5 per mm^2.

Take `O=c1[nH]c2ccccc2c2ccccc12` [Compound A, 6(5H)-phenanthridinone, reference compound]: the “Number of viable sensory neurons … (per mm^2)” value in assay [1] (setting [3]) turned out to be 37 ± 3.6 per mm^2; in assay [1] (setting [4]) it was 6 ± 0.8 per mm^2. Moreover, in assay [1], the “Effect on NGF or NT-3 prolonged survival of sensory neurons in the dorsal root ganglion (in words)” value is on record as “had no effects”.
